The source of these data is PMC8037097, “Highly Oxygenated Triterpenoids and Diterpenoids from Fructus Rubi (Rubus chingii Hu) and Their NF-kappa B Inhibitory Effects” (Molecules, 2021).

Values after ≈ are worked out from the molar mass of the structure shown. Like-named read-outs stand apart in the source and are kept apart here.

For assay [1], the system named is C. albicans SC5314 sensitive strain. In words: Anti-fungal susceptibility assay (CLSI M27-A3), sensitive strain. It is filed as cell-based. The settings on record: Candida albicans, 48 h incubation at 37 °C. The procedure:
An anti-fungal assay was carried out on the basis of the Clinical and Laboratory Standards Institute (CLSI) method M27-A3 [45, 48]. A single colony of Candida albicans (the resistant strain 901 or the sensitive strain 5314) was chosen from Sabouraud’s agar and then inoculated in yeast extract peptone dextrose medium (YEPD) for activation by shake bottled cultivation (200 rpm, 37 °C). After 16 h, fungi in the late-exponential growth phase were obtained, followed by being adjusted to 1 × 10^3–5 × 10^3 CFU/mL with RPMI 1640 medium. The density of the fungi in 96-well plates was 10^3 CFU/mL, while the final concentrations of the test compounds ranged from 64 to 0.125 μg/mL in triplicate. The assay volume in each well was 100 μL with MIC80 determined following 48 h incubation at 37 °C. Optical density was measured with a microplate reader (Multiskan MK3; Labsystems, Nantaa, Finland) at 630 nm. MIC80 was determined as the lowest concentration of the drugs that inhibited growth by 80% compared with the […]. Fluconazole was used as the positive control.

In a further assay the test system is NF-κB. In words: NF-κB inhibitory assay (luciferase, HEK293 with stable NF-κB expression, TNF-α stimulation). The settings on record: read-out: NF-κB (IC50). Format: cell-based. The method, then:
HEK293 with a stable NF-κB expression cell line was used for the luciferase assay. Cells were maintained at 37 °C and 5% CO2 atmosphere in Dulbecco’s modified Eagle’s medium with 100 U/mL benzylpenicillin 100 μg/mL streptomycin, 2 mM glutamine, and 10% fetal bovine serum. Before seeding in 96-well plates, the cells were stained for 1 h in serum-free medium supplemented with […] cell Tracker Green CMFDA. Cells were seeded into 96-well plates and incubated for 24 h, and then treated with different concentrations of the tested compounds followed by stimulation with 20 ng/mL TNF-α. The luciferase substrate was added to each well after incubation for 6 h, and then the released luciferin signal was detected using an EnVision microplate reader. The IC50 value was derived from a nonlinear regression model (curve-fit), based on a sigmoidal dose response curve (variable slope) and computed using Graphpad Prism 5 (Graphpad Software). Bortezomib (PS-341, CAS No. 179324-69-7) was used as the positive control.

As for `OC(Cn1cncn1)(Cn1cncn1)c1ccc(F)cc1F` [Fluconazole, reference compound], the MIC80 (in general, an inhibitory concentration at the 80% level, which refers to growth in some studies and to a panel of isolates in others) in assay [1] came out at 0.125 µg/mL (≈ 0.408 µM).
Regarding `CC(C)C[C@H](NC(=O)[C@H](Cc1ccccc1)NC(=O)c1cnccn1)B(O)O` [PS-341, Bortezomib, reference compound], the IC50 – broadly, the midpoint of a concentration-inhibition curve – in the assay on NF-κB (Homo sapiens, HEK293 NF-κB luciferase, 20 ng/mL TNF-α, 6 h, mean SEM of triplicated experiments) turned out to be 440 ± 80 nM.
In turn, `CC1(C)CC[C@]2(C(=O)O)CC[C@]3(C)C(=CC[C@@H]4[C@@]5(C)C[C@@H](O)[C@@H](O)[C@@](C)(CO)[C@@H]5CC[C@]43C)[C@@H]2C1` [Compound 12] displayed an MIC80 in assay [1] of 32 µg/mL (≈ 65.5 µM).
Consider cucurbitacin B [Compound 15], for which the IC50 in the assay on NF-κB (HEK293 NF-κB luciferase, 20 ng/mL TNF-α, 6 h, mean SEM of triplicated experiments) is 80 ± 30 nM.
As for `CC(C)(O)/C=C/C(=O)[C@](C)(O)[C@H]1[C@H](O)C[C@@]2(C)[C@@H]3CC=C4[C@@H](CC(=O)[C@@H](O)C4(C)C)[C@]3(C)C(=O)C[C@]12C` [Compound 17, 3α,16α,20(R),25-tetrahydroxy-cucurbita-5,23-dien-2,11,22-trione], the IC50 in the assay with NF-κB (Homo sapiens, HEK293, 6 h) turned out to be 1600 ± 320 nM.
Turning to `CC(C)(O)/C=C/C(=O)[C@](C)(O)[C@H]1[C@H](O)C[C@@]2(C)[C@@H]3CC=C4[C@@H](C[C@H](O)C(=O)C4(C)C)[C@]3(C)C(=O)C[C@]12C` [Compound 16, cucurbitacin D], the IC50 in the assay with NF-κB (Homo sapiens, HEK293, 6 h) was 610 ± 120 nM.
